Source: patent publication US20240181087A1, “COMPOSITION FOR CONTRAST IMAGING OF CANCER” (ASTELLAS PHARMA INC., priority 2021, published 2024)

Experiments:
[1] = system: renal epithelial cell carcinoma; assay: near-infrared fluorescence imaging of kidney with tumor/pretumor induced with ferric nitrilotriacetate; type: in vivo, rat
Procedure: A kidney cancer […] model was created based on a method reported by Okada et al., (Okada et al., Jpn. Arch. Int. Med., 1982, 29, 485). Specifically, rats (280 g to 320 g) were bred after continuously intraperitoneally administering ferric nitrilotriacetate to the rats for 6 months, and thus, renal epithelial cell carcinoma was induced therein.
Each of the rats was anesthetized by intraperitoneally administering pentobarbital sodium salt, a saline containing the compound III was administered to the tail vein (dose of the compound: 0.75 mg/kg of the rat), and 30 minutes, 3 hours, or 24 hours after the administration, the rat was subjected to laparotomy to perform near-infrared fluorescence imaging of the kidney with a near-infrared fluorescence imaging device (PDE, manufactured by Hamamatsu Photonics K.K.) (FIG. 11). Besides, the kidney having been subjected to the near-infrared fluorescence imaging was excised from the body, and the cross section was subjected to near-infrared fluorescence imaging (FIG. 12). Three rats each were used at each of the above-described timings after the administration, and nine rats were used in total.
Besides, a specimen for microscopic observation was created through ethanol immobilization, section creation, hematoxylin/eosin staining for performing observation in bright field and near-infrared fluorescence (FIG. 13). […] Thus, tumor embedded in surrounding tissues could be detected.

[2] = system: CT26 (colorectal cancer cell); assay: near-infrared fluorescence imaging after administration into tumor, CT26 colorectal cancer model; type: in vivo, mouse; settings: 0.02 to 0.05 mL of 1 mg/mL saline, transdermal imaging
Description: (§1) A syngeneic tumor transplanted mouse model was created as follows referring to “Gan-Shikkan Model no Sakusei to Riyo (Cancer-Creation and Use of Disease Model)” (Takuro Nakamura, LIC, 2012). • (Breast Cancer) A tumor model was created by breeding a normal Balb/c mouse (weight: about 20 g to 30 g) for 14 days with mouse tumor cell 4T1 subcutaneously administered thereto. • (Colorectal Cancer) A tumor model was created by breeding a normal Balb/c mouse (weight: about 20 g to 30 g) for 14 days with CT26 (colorectal cancer cell) subcutaneously administered thereto. • (Skin Cancer) A tumor model was created by breeding a C57BL/6 mouse (weight: about 15 g to 20 g) for 14 days with B16F1 (skin cancer cell) subcutaneously administered thereto.
(§2) Subsequently, to the tumor of each of the model mice, 0.02 to 0.05 mL of a saline containing the compound III or ICG (concentration of the compound III or ICG: 1 mg/mL) was administered, and fluorescence imaging was performed transdermally with a near-infrared fluorescence camera (Fluobeam, manufactured by Fluoptics, http://www.solve-net.com/info/wp-content/uploads/downloads/2013/12/Fluobeam.pdf) (excitation wavelength: 780 nm, detection wavelength: 800 nm or more).

RenCa cell = assay: near-infrared fluorescence imaging of abdominal cavity, peritoneal cancer mouse model (RenCa, intraperitoneal); type: in vivo; settings: tail vein 12 nmol/kg; laparotomy immediately after administration
Procedure: Metastatic spontaneous renal cell carcinoma line from BALB/c mouse, RenCa cell (5×10^6 cells, purchased from CLS Cell Lines Service GmbH, Eppelheim, Germany) was intraperitoneally inoculated into a mouse (BALB/cCrSlc, SPF, female, 7 weeks old) and the resultant mouse was bred for 14 days to cause peritoneal cancer therein. The mouse (weight: about 20 g) was anesthetized by subcutaneous administration of ketamine (75 mg/kg) and medetomidine (1 mg/kg), and the compound III (12 nmol/kg weight) was administered through the tail vein. Immediately after the administration, laparotomy was conducted to perform near-infrared fluorescence imaging with a near-infrared fluorescence imaging device (pde-neo, manufactured by Hamamatsu Photonics K.K.).

B16F1 (skin cancer cell) = assay: near-infrared fluorescence imaging after administration into tumor, B16F1 skin cancer model; type: in vivo, mouse; settings: 0.02 to 0.05 mL of 1 mg/mL saline, transdermal imaging
Description: as §1, §2

[3] = system: Human stomach cancer cell MKN45-Luc; assay: near-infrared fluorescence observation of abdominal cavity, peritoneal dissemination mouse model; type: in vivo; settings: tail vein 40 nmol/kg, 10 minutes
Description: Human stomach cancer cell MKN45-Luc (5×10^6 cells, purchased from JCRB cell bank of National Institutes of Biomedical Innovation, Health and Nutrition) was intraperitoneally injected into a nude mouse (BALB/cSlc-nu, SPF, male, weight: about 20 g), and the resultant mouse was bred for 15 days to create a nude mouse having peritoneal dissemination. […] The near-infrared fluorescence was not emitted from the abdominal cavity of the normal mouse (FIG. 22).

[4] = system: human glioblastoma cells U-251MG; assay: near-infrared fluorescence imaging after topical administration into tumor, human glioblastoma subcutaneous transplant model; type: in vivo; settings: U-251MG glioblastoma, SCID mouse, 0.02 to 0.1 mL of 1 mg/mL, 1 hour after administration
Procedure: A human cancer cell transplant model mouse was created as follows: • (Head and neck/tongue cancer) To immunodeficient SCID mice (weight: 17 g to 23 g), about 10^6 human tongue cancer cells CAL27 (purchased from American Type Culture Collection: ATCC) were subcutaneously administered, and the resultant mice were grown for 49 days to create tumor models. • (Brain cancer/neuroblastoma) To immunodeficient SCID mice (weight: 17 g to 23 g), about 10^6 human neuroblastoma cells SH-SY5Y (purchased from ATCC) were subcutaneously administered, and the resultant mice were grown for 90 days to create tumor models. • (Brain cancer/glioblastoma) To immunodeficient SCID mice (weight: 17 g to 23 g), about 10^6 human glioblastoma cells U-251MG (obtained from European Collection of Authenticated Cell Cultures) were subcutaneously administered, and the resultant mice were grown for 90 days to create tumor models.
Subsequently, to the tumor of each of the mouse models, 0.02 to 0.1 mL of a saline containing the compound III (concentration of the compound III: 1 mg/mL) was topically administered, and fluorescence imaging was conducted transdermally with a near-infrared fluorescence camera (Fluobeam, manufactured by Fluoptics) (excitation wavelength: 780 nm, detection wavelength: 800 nm or more).

RenCa kidney cancer cell = assay: near-infrared fluorescence observation of kidney, kidney cancer mouse (RenCa in left kidney); type: in vivo; settings: tail vein 12 nmol/kg, after 10 minutes
Procedure: Under anesthesia by subcutaneous administration of ketamine (75 mg/kg) and medetomidine (1 mg/kg), RenCa kidney cancer cell (5×10^6 cells, purchased from CLS Cell Lines Service GmbH, Eppelheim, Germany) was transplanted into the left kidney of a mouse (weight: about 20 g), and the resultant mouse was bred for 9 to 14 days to create a kidney cancer mouse. […] The fluorescence from a cancer tissue was weak, the fluorescence from a normal tissue was strong, and thus, the cancer tissue and the normal tissue could be distinguished from each other (FIG. 24).

[5] = ferric nitrilotriacetate rat, tail vein 0.75 mg/kg, excised kidney
[6] = MKN45-Luc peritoneal dissemination nude mouse

## COC1=C(/C=C/C2=[N+](CCC(=O)NCCCO[C@H]3[C@H]4O[C@H]5[C@H](O)[C@@H](O)[C@@H](O[C@H]6[C@H](O)[C@@H](O)[C@@H](O[C@H]7[C@H](O)[C@@H](O)[C@@H](O[C@H]8[C@H](O)[C@@H](O)[C@@H](O[C@H]9[C@H](O)[C@@H](O)[C@@H](O[C@H]%10[C@H](O)[C@@H](O)[C@@H](O[C@@H]([C@@H]3O)[C@@H](CO)O4)O[C@@H]%10CO)O[C@@H]9CO)O[C@@H]8CO)O[C@@H]7CO)O[C@@H]6CO)O[C@@H]5CO)c3ccc4ccccc4c3C2(C)C)CCC/C1=C\C=C1\N(CCC(=O)NCCCO[C@H]2[C@H]3O[C@H]4[C@H](O)[C@@H](O)[C@@H](O[C@H]5[C@H](O)[C@@H](O)[C@@H](O[C@H]6[C@H](O)[C@@H](O)[C@@H](O[C@H]7[C@H](O)[C@@H](O)[C@@H](O[C@H]8[C@H](O)[C@@H](O)[C@@H](O[C@H]9[C@H](O)[C@@H](O)[C@@H](O[C@@H]([C@@H]2O)[C@@H](CO)O3)O[C@@H]9CO)O[C@@H]8CO)O[C@@H]7CO)O[C@@H]6CO)O[C@@H]5CO)O[C@@H]4CO)c2ccc3ccccc3c2C1(C)C.[Cl-] [compound III, 3-(3-{[3-(cyclomaltoheptaose-21-O-yl)propyl]amino}-3-oxopropyl)-2-{(1E)-2-[(3E)-3-{(2E)-2-[3-(3-{[3-(cyclomaltoheptaose-21-O-yl)propyl]amino}-3-oxopropyl)-1,1-dimethyl-1,3-dihydro-2H-benzo[e]indol-2-ylidene]ethylidene}-2-methoxycyclohexa-1-en-1-yl]ethene-1-yl}-1,1-dimethyl-1H-benzo[e]indol-3-ium chloride]
[1]; ferric nitrilotriacetate rat, near-infrared fluorescence microscope, section 3 hours after administration
  near-infrared fluorescence micro image of kidney tissue section: strong near-infrared fluorescence was found locally in a non-neoplastic degeneration site, a pre-neoplastic degeneration site, and a neoplastic degeneration site
[1]; ferric nitrilotriacetate rat, tail vein 0.75 mg/kg, 30 minutes, 3 hours or 24 hours after administration
  near-infrared fluorescence macro image of the surface of the kidney having tumor and pretumor: strong fluorescence was locally found in a dotted manner
[1]; [5]
  near-infrared fluorescence image of kidney cross section: dotted fluorescence in renal medulla: not observed
  near-infrared fluorescence image of kidney cross section: renal cortex: a site exhibiting strong fluorescence in a dotted manner was observed
[1]; normal rat, tail vein 0.75 mg/kg
  aspect of dotted strong fluorescence in normal kidney: not observed
[2]
  retention in tumor (fluorescence imaging): retained in the tumor
RenCa cell
  near-infrared fluorescence from peritoneal cancer site versus normal tissue: stronger than that from a normal tissue
B16F1 (skin cancer cell)
  retention in tumor (fluorescence imaging): retained in the tumor
[3]; [6]
  near-infrared fluorescence of dissemination present in the entire abdominal cavity: emitted the near-infrared fluorescence
  near-infrared fluorescence of visually recognizable cancer tissue (nearly necrotic): did not emit the near-infrared fluorescence
[3]; normal nude mouse
  near-infrared fluorescence from abdominal cavity of normal mouse: not emitted
[4]
  retention inside the tumor (fluorescence imaging): retained inside the tumor
RenCa kidney cancer cell
  fluorescence from kidney cancer tissue: weak
  fluorescence from normal kidney tissue: strong
